US5504213A, “Benzofuranyl-and-thiophenyl-alkanecarboxyclic acid derivatives” (Bayer Aktiengesellschaft, priority 1993, dated 1996)

Legend:
PMN cyclic AMP = assay: Measurement of PMN cyclic AMP concentration (human PMN, FMLP-stimulated); type: cell-based; conditions: 4×10^-8 M FMLP, control 100, expressed as percentage of vehicle control, read-out: % elevation of cAMP at 1 μM (control 100)
Method: 1. Preparation of human PMN
Blood was taken from healthy subjects by venous puncture and neutrophils were purified by dextran sedimentation and resuspended in the buffered medium.
3. Measurement of PMN cyclic AMP concentration
The compounds according to the invention were incubated with 3.7×10^6 PMN for 5 min at 37° C. before addition of 4×10^-8 M FMLP. After 6 min protein was precipitated by the addition of 1% v/v conc. HCl in 96% v/v ethanol containing 0.1 mM EDTA. After centrifugation the ethanolic extracts were evaporated to dryness under N2 and resuspended in 50 mM Tris/HCl pH 7.4 containing 4 mM EDTA. The cyclic AMP concentration in the extracts was determined using a cyclic AMP binding protein assay supplied by Amersham International plc. Cyclic AMP concentrations were expressed as percentage of vehicle containing control incubations.

[1] = system: FMLP-induced skin oedema of guinea-pigs; assay: Effect of orally administered compounds on the FMLP-induced skin oedema of guinea-pigs in vivo; conditions: guinea pig, 25 mg/kg
Method: 6. Effect of orally administered compounds on the FMLP-induced skin oedema
of guinea-pigs in vivo-Test's p.o.
Guinea-pits (600-800 g) were fasted overnight and orally treated with vehicle ([…]; […]) 40 minutes later the animals were anasthetized with pentobarbitone sodium (40 mg/kg; i.p.) and 0.6 ml of a mixture of pontamine sky blue (5% w/v) and ^125 I-HSA (1 μci/animal) was injected (i.V.). 90 minutes after oral pretreatment FMLP (50 μg/site) was injected (i.d.) at 4 different sites, histamine (1 μg/site) and vehicle (100 μl, 1% DMSO v/v in Hanks buffered salt solution) were both injected (i.d.) at 2 different sites.
The responses were allowed to develop for 30 minutes before the animal was sacrificed and a blood sample taken.
Skin sites and plasma samples were counted for 1 minute on a gamma counter. The degree of oedema was calculated as μl plasma/skin site.
Statistical analysis was carried out by a Mann-Whitney U-test on the mean of the 4 values of μl Plasma obtained for FMLP/animal.

[2] = system: FMLP-induced skin oedama of guinea pigs; assay: Effect of intravenously administered compounds on the FMLP-induced skin oedema of guinea pigs; type: in vivo; conditions: guinea pig, 1 mg/kg
Method: 5. Effect of intravenously administered compounds on the FMLP-induced skin oedama of guinea pigs.
Guinea-pigs (600-800 g) were anaesthetized with pentobarbitone sodium (40 mg/kg, i.p.) and injected (i.V.) with a 0.5 ml mixture of pentamine sky blue (5% W/V) and ^125 I-HSA ([…]). 10 minutes later 3 intradermal injections of FMLP (10 μg/site), 1 injection of histamine (1 μg/site) and 1 injection of vehicle (100 μl of 0.2% DMSO V/V in Hanks Buffered salt solution) were made on the left hand side of the animal (preinjection sites). 5 minutes later the drug (1 ml/kg) or the vehicle (50% PEG 400 V/V in distilled water, 1 ml/kg) was administered (i.V.). 10 minutes later an identical pattern of intradermal injections was made on the opposite flank of the animal (post-injection sites). These responses were allowed to develop for 15 minutes before the animal was sacrificed and a blood sample taken.
Skin sites and plasma samples were counted for 1 minute on a gamma counter and the degree of oedema calculated as μl plasma/skin site. Statistical analysis was done by a paired t-test on the mean of the 3 pre-injection site values of μl plasma obtained for FMLP/animal. The percentage inhibition of drug or vehicle was calculated as follows [formula]

Compound: COC(=O)CCc1c(C(=O)c2ccc(Cl)cc2)oc2cc(O)ccc12 [Example 30]
- activity at 1 µM (PMN cyclic AMP): 394%
- % inhibition (FMLP-induced skin oedema, p.o.) [1]: 46%
- % inhibition (FMLP-induced skin oedema, i.v.) [2]: 40.0%
